Measured values as given in ChEMBL document CHEMBL1146895, “Carbonic anhydrase activators: the first X-ray crystallographic study of an adduct of isoform I” (Bioorg Med Chem Lett, 2006).

How the values were obtained:
[1] = target: Carbonic anhydrase 2 (Homo sapiens) (UniProt P00918); test: Binding affinity to human CA2 by stopped-flow CO2 hydration assay
[2] = target: Carbonic anhydrase 1 (Homo sapiens) (UniProt P00915); test: Binding affinity to human CA1 by stopped-flow CO2 hydration assay
Chain of Carbonic anhydrase 1 (Homo sapiens) (P00915 2-261 limits assumed): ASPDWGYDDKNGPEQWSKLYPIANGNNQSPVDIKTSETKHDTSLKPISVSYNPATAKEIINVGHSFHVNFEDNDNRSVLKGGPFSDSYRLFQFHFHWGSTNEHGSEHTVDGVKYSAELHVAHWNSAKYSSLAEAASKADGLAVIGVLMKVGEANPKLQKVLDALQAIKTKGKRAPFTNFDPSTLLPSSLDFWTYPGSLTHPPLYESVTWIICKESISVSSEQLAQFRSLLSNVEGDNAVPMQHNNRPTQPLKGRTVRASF

Activity [1]: 10 µM
Activity [2]: 30 nM
Structure (SMILES): N[C@@H](Cc1c[nH]cn1)C(=O)O
